# Laboratory results published in patent US8613914B2, “Peptidomimetic sulfamide compounds and antiviral uses thereof” (Novartis AG, priority 2009, dated 2013).
# Molecular target: HCV NS3-4A serine protease (full-length NS3-4A protein) (Hepatitis C virus genotype 1a (isolate 1) (HCV), UniProt P26664)
# Experiment: HCV NS3-4A protease assay
# Type: biochemical, HCV genotype 1a
# Settings: strain HCV-1, fluorogenic peptide substrate, read-out: Protease assay Ex. 12 IC50
# Protocol: The inhibitory activity of certain compounds of Table A against HCV NS3-4A serine protease is determined in a homogenous assay using the full-length NS3-4A protein (genotype 1a, strain HCV-1) and a commercially available internally-quenched fluorogenic peptide substrate as described by Taliani, M., et al. 1996 Anal. Biochem. 240:60-67, which is incorporated by reference in its entirety.
# Chain of HCV NS3-4A serine protease (full-length NS3-4A protein) (P26664 1027-1657): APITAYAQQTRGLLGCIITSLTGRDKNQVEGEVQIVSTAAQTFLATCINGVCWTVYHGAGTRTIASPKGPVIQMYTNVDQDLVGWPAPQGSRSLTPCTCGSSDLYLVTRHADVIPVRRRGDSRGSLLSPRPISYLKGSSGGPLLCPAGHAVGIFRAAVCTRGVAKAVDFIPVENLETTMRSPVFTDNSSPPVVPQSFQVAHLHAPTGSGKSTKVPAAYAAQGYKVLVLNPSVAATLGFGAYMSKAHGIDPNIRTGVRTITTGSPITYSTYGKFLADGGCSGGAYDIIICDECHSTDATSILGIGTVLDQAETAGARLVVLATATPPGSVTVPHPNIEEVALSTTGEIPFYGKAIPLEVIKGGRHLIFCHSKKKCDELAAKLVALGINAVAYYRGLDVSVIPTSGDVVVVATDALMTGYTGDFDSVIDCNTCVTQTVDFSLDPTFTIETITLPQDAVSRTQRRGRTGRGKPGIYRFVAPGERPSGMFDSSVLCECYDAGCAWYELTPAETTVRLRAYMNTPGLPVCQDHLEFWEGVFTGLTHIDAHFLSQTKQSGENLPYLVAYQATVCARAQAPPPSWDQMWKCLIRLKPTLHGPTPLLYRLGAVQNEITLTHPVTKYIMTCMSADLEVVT
# Chain of HCV NS3-4A serine protease (full-length NS3-4A protein) (P26664 1658-1711 partner): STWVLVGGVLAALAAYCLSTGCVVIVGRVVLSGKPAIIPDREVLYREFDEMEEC
row,Structure (SMILES),IC50 [nM]
1,"CC[C@@H]1C[C@]1(NC(=O)[C@@H]1C[C@@]2(CN1C(=O)[C@@H](NC(=O)[C@@H](NC(=O)[C@@H]1CCCN1CC)C1CCCCC1)C(C)(C)C)C(C)(C)C21CCC1)C(=O)NS(=O)(=O)N1CCCC1 [Compound 99, (5R,8S)-7-[(2S)-2-{[(2S)-2-cyclohexyl-2-({[(2S)-1-ethylpyrrolidin-2-yl]carbonyl}amino)acetyl]amino}-3,3-dimethylbutanoyl]-N-{(1R,2R)-2-ethyl-1-[(pyrrolidin-1-ylsulfonyl)carbamoyl]cyclopropyl}-10,10-dimethyl-7-azadispiro[3.0.4.1]decane-8-carboxamide]",20
2,"C=C[C@@H]1C[C@]1(NC(=O)[C@@H]1C[C@@]2(CN1C(=O)[C@@H](NC(=O)[C@@H](NC(=O)c1cc(C(C)(C)C)nn1C)C1CCCCC1)C(C)(C)C)C(C)(C)C21CCC1)C(=O)NS(=O)(=O)N1CCCC1 [Compound 181, (5R,8S)-7-[(2S)-2-{[{[(3-tert-butyl-1-methyl-1H-pyrazol-5-yl)carbonyl]amino}(cyclohexyl)acetyl]amino}-3,3-dimethylbutanoyl]-10,10-dimethyl-N-{(1R,2S)-1-[(pyrrolidin-1-ylsulfonyl)carbamoyl]-2-vinylcyclopropyl}-7-azadispiro[3.0.4.1]decane-8-carboxamide]",90
3,"C=C[C@@H]1C[C@]1(NC(=O)[C@@H]1C[C@@]2(CN1C(=O)[C@@H](NC(=O)[C@@H](NC(=O)[C@@H]1CCCN1CC)C1(C)CCCCC1)C1(C)CCOCC1)C(C)(C)C21CCC1)C(=O)NS(=O)(=O)N(CC)CC [Compound 153, (5R,8S)-N-[(1R,2S)-1-{[(diethylamino)sulfonyl]carbamoyl}-2-vinylcyclopropyl]-7-[(2S)-2-{[(2S)-2-({[(2S)-1-ethylpyrrolidin-2-yl]carbonyl}amino)-2-(1-methylcyclohexyl)acetyl]amino}-2-(4-methyltetrahydro-2H-pyran-4-yl)acetyl]-10,10-dimethyl-7-azadispiro[3.0.4.1]decane-8-carboxamide]",1.8
4,"C=C[C@@H]1C[C@]1(NC(=O)[C@@H]1C[C@@]2(CN1C(=O)[C@@H](NC(=O)[C@@H](NC(=O)[C@@H]1CCCN1CCF)C1CCCCC1)C1CCOCC1)C(C)(C)C21CCC1)C(=O)NS(=O)(=O)N1CCCC1 [Compound 73, (5R,8S)-7-[(2S)-2-{[(2S)-2-cyclohexyl-2-({[(2S)-1-(2-fluoroethyl)pyrrolidin-2-yl]carbonyl}amino)acetyl]amino}-2-(tetrahydro-2H-pyran-4-yl)acetyl]-10,10-dimethyl-N-{(1R,2S)-1-[(pyrrolidin-1-ylsulfonyl)carbamoyl]-2-vinylcyclopropyl}-7-azadispiro[3.0.4.1]decane-8-carboxamide]",15
5,"C=C[C@@H]1C[C@]1(NC(=O)[C@@H]1C[C@@]2(CN1C(=O)[C@@H](NC(=O)[C@@H](NC(=O)[C@@H]1CCCN1CC)C1(C)CCOCC1)C1(C)CCCCC1)C(C)(C)C21CCC1)C(=O)NS(=O)(=O)N(CC)CC [Compound 157, (5R,8S)-N-[(1R,2S)-1-{[(diethylamino)sulfonyl]carbamoyl}-2-vinylcyclopropyl]-7-[(2S)-2-{[(2S)-2-({[(2S)-1-ethylpyrrolidin-2-yl]carbonyl}amino)-2-(4-methyltetrahydro-2H-pyran-4-yl)acetyl]amino}-2-(1-methylcyclohexyl)acetyl]-10,10-dimethyl-7-azadispiro[3.0.4.1]decane-8-carboxamide]",1
6,"C=C[C@@H]1C[C@]1(NC(=O)[C@@H]1C[C@@]2(CN1C(=O)[C@@H](NC(=O)[C@@H](NC(=O)[C@@H]1CCCN1CC)C1CCCCC1)C1CCOCC1)C(C)(C)C21CCC1)C(=O)NS(=O)(=O)N(CC)CC [Compound 96, (5R,8S)-7-[(2S)-2-{[(2S)-2-cyclohexyl-2-({[(2S)-1-ethylpyrrolidin-2-yl]carbonyl}amino)acetyl]amino}-2-(tetrahydro-2H-pyran-4-yl)acetyl]-N-[(1R,2S)-1-{[(diethylamino)sulfonyl]carbamoyl}-2-vinylcyclopropyl]-10,10-dimethyl-7-azadispiro[3.0.4.1]decane-8-carboxamide]",7
7,"C=C[C@@H]1C[C@]1(NC(=O)[C@@H]1C[C@@]2(CN1C(=O)[C@@H](NC(=O)[C@@H](NC(=O)c1ccc3[nH]ccc3c1)C1CCCCC1)C(C)(C)C)C(C)(C)C21CCC1)C(=O)NS(=O)(=O)N1CCCC1 [Compound 190, (5R,8S)-7-[(2S)-2-({cyclohexyl[(1H-indol-5-ylcarbonyl)amino]acetyl}amino)-3,3-dimethylbutanoyl]-10,10-dimethyl-N-{(1R,2S)-1-[(pyrrolidin-1-ylsulfonyl)carbamoyl]-2-vinylcyclopropyl}-7-azadispiro[3.0.4.1]decane-8-carboxamide]",20
8,"C=C[C@@H]1C[C@]1(NC(=O)[C@@H]1C[C@@]2(CN1C(=O)[C@@H](NC(=O)[C@@H](NC(=O)[C@@H]1CCCN1CC)C(C)(C)C)C1(C)CCOCC1)C(C)(C)C21CCC1)C(=O)NS(=O)(=O)N1CCCC1 [Compound 126, 1-ethyl-L-prolyl-N-[(1S)-2-[(5R,8S)-10,10-dimethyl-8-({(1R,2S)-1-[(pyrrolidin-1-ylsulfonyl)carbamoyl]-2-vinylcyclopropyl}carbamoyl)-7-azadispiro[3.0.4.1]dec-7-yl]-1-(4-methyltetrahydro-2H-pyran-4-yl)-2-oxoethyl]-3-methyl-L-valinamide]",6
9,"C=C[C@@H]1C[C@]1(NC(=O)[C@@H]1C[C@@]2(CN1C(=O)[C@@H](NC(=O)[C@@H](NC(=O)[C@@H]1CCCCN1CC)C1CCCCC1)C(C)(C)C)C(C)(C)C21CCC1)C(=O)NS(=O)(=O)N1CCCC1 [Compound 37, (5R,8S)-7-[(2S)-2-{[(2S)-2-cyclohexyl-2-({[(2S)-1-ethylpiperidin-2-yl]carbonyl}amino)acetyl]amino}-3,3-dimethylbutanoyl]-10,10-dimethyl-N-{(1R,2S)-1-[(pyrrolidin-1-ylsulfonyl)carbamoyl]-2-vinylcyclopropyl}-7-azadispiro[3.0.4.1]decane-8-carboxamide]",3.3
10,"C=C[C@@H]1C[C@]1(NC(=O)[C@@H]1C[C@@]2(CN1C(=O)[C@@H](NC(=O)[C@@H](NC(=O)[C@H]1CCN1C(C)C)C(C)(C)C)C(C)(C)C)C(C)(C)C21CCC1)C(=O)NS(=O)(=O)N1CCCC1 [Compound 22, (5R,8S)-7-[(2S)-2-{[(2S)-2-({[(2R)-1-isopropylazetidin-2-yl]carbonyl}amino)-3,3-dimethylbutanoyl]amino}-3,3-dimethylbutanoyl]-10,10-dimethyl-N-{(1R,2S)-1-[(pyrrolidin-1-ylsulfonyl)carbamoyl]-2-vinylcyclopropyl}-7-azadispiro[3.0.4.1]decane-8-carboxamide]",95
11,"C=C[C@@H]1C[C@]1(NC(=O)[C@@H]1C[C@@]2(CN1C(=O)[C@@H](NC(=O)[C@@H](NC(=O)[C@@H]1CCCCN1C)C1CCCCC1)C(C)(C)C)C(C)(C)C21CCC1)C(=O)NS(=O)(=O)N(C)CC [Compound 93, (5R,8S)-7-[(2S)-2-{[(2S)-2-cyclohexyl-2-({[(2S)-1-methylpiperidin-2-yl]carbonyl}amino)acetyl]amino}-3,3-dimethylbutanoyl]-N-[(1R,2S)-1-({[ethyl(methyl)amino]sulfonyl}carbamoyl)-2-vinylcyclopropyl]-10,10-dimethyl-7-azadispiro[3.0.4.1]decane-8-carboxamide]",2
